Data reported in patent publication US12503452B2 (Curza Global, LLC, priority 2019, dated 2025).
Structures can show the parent of a compound that is named as a salt. Where two headings read alike, the source gives them in different places.

What was measured:
[1] = test system: E. coli S30 extract (bacterial protein synthesis); test: E. coli S30 extract coupled transcription-translation luciferase assay (inhibition of bacterial protein synthesis); assay type: biochemical; conditions: read-out: S30 IC50 (μM/% inhib.)
Description: E. coli S30 extract: Inhibition of bacterial protein synthesis was determined using the E. coli S30 Extract System for Circular DNA (Promega catalog #L-2010) and Luciferase Assay Reagent (Promega catalog #E1500) with slight modifications to a published protocol. Fyfe, C., Sutcliffe, J. A. and Grossman, T. H. (2012) “Development and characterization of a Pseudomonas aeruginosa in vitro coupled transcription-translation assay system for evaluation of translation inhibitors” J. Microbiol. Methods 90(3), 256-261.
Compounds were serial diluted in 0.5 mL microcentrifuge tubes by mixing and transferring 50 μL from the highest concentration to 50 μL of water, mixing and transferring 50 μL of this 2-fold dilution to 50 μL of water. This mixing and transferring was repeated so that there are a total of 8 tubes with serial dilutions of compound at 10× the desired screening concentration that are ultimately diluted to 1× by the addition of S30 luciferase synthesis mixture. Serial dilutions of compounds were added (2 μL) to wells in a black round bottom 96-well plate. Water (2 μL) was used as a “no inhibitor” control in 4 wells/plate. No DNA control reaction mixture (20 μL; see below) was used as a control in 4 wells/plate for background luminescence. S30 luciferase synthesis mixture (18 μL; see below) was added to wells with compounds or water mixture and incubated at 37° C. for 1 hour. Reactions were stopped by transferring to 4° C. refrigerator for 5 minutes then 25 μL of luciferase activity mix was added. Luminescence was measured using a BioTek Synergy HTX plate reader. % Inhibition was determined relative to no inhibitor controls.
S30 luciferase synthesis mixture:
• 445 μL S30 extract, circular • 712 μL S30 Premix without amino acids • 4.45 μL pBESTluc™ DNA (1 μg/μL) • 78 μL complete amino acid mixture • 267 μL water No DNA control: • 20 μL S30 extract, circular • 32 μL S30 Premix without amino acids • 7 μL complete amino acid mixture • 21 μL water Rabbit Reticulocyte lysate

E. coli (Ec) = test: Broth microdilution minimum inhibitory concentration (MIC); assay type: cell-based; conditions: Escherichia coli, E. coli, read-out: E. coli + bicarb MIC
Description: A certified BSL-2 laboratory was used for testing. Compounds were evaluated using the broth microdilution minimum inhibitory concentration (MIC) and minimum bactericidal concentration (MBC) assays defined by Clinical and Laboratory Standards Institute (CLSI) in the M26-A guideline against S. aureus (Sa), E. coli (Ec), K. pneumoniae (Kp), A. baumannii (Ab), E. faecalis (Ef) and P. aeruginosa (Pa).
MICs were determined using the Clinical Laboratory and Standards Institute (CLSI) Broth Microdilution Method with slight modification. Clinical and Laboratory Standards Institute (2012). “Methods for dilution antimicrobial susceptibility tests for bacteria that grow aerobically; approved standard, 9th ed. M07-A9. Clinical and Laboratory Standards Institute, Wayne, PA” Serial two-fold dilutions of compounds are prepared in sterile clear round-bottom 96-well plates.
To prepare microdilution trays, two-fold dilutions of antimicrobial agent are prepared in growth medium: Cation-Adjusted Mueller-Hinton Broth (CAMHB), or CAMHB supplemented with sodium bicarbonate (6.25 or 25 mM final concentration prepared from a 1.0M stock solution) or CAMHB supplemented with heat inactivated human serum (Fisher Cat. #BP2657100) 0-50% by adding 200 μL of the highest concentration to be tested (64 μg/mL, for example) in row A, mixing and transferring 100 μL from row A to 100 μL growth medium in row B, then repeating the mixing and transferring through row H of the 96-well plate, discarding the excess 100 μL remaining. This slight modification to the CLSI protocol enables evaluation of MICs for 3 compounds per plate in triplicate, albeit with only 8 compound dilutions (CLSI protocol enables 2 compounds in triplicate with 10 dilutions). Bacterial suspensions are added to a final concentration of 5×10^4 CFU/well by adding 5 μL of a 1:10 dilution of a 0.5 McFarland suspension (1×10^8 CFU/mL) for each bacterium evaluated. Bacterial suspensions were prepared using the growth method described by CLSI. Well-isolated colonies (3-5 from an agar plate) were selected using a sterile loop and used to inoculate a tube containing 4 mL of CAMHB. The cultures are incubated at 35±2° C. until it achieves or exceeds the turbidity of the 0.5 McFarland standard, determined by measuring A600nm (usually two to six hours). When growth exceeds a 0.5 McFarland standard, the turbidity is adjusted with broth to be equivalent to a 0.5 McFarland standard.

[2] = molecular target: Rabbit Reticulocyte Lysate (eukaryotic protein synthesis); test: Rabbit reticulocyte lysate luciferase assay (inhibition of eukaryotic protein synthesis); assay type: biochemical; conditions: read-out: Rabbit reticulocyte IC50 (μM/% inhib.)
Description: Inhibition of eukaryotic protein synthesis was determined using the Rabbit Reticulocyte Lysate System, Nuclease-Treated from Promega (catalog #L-4960) with slight modifications to the manufacturer's protocol. Compounds were serial diluted in 0.5 mL microcentrifuge tubes by mixing and transferring 50 μL from the highest concentration to 50 μL of water, mixing and transferring 50 μL of this 2-fold dilution to 50 μL of water. This mixing and transferring was repeated so that there are a total of 8 tubes with serial dilutions of compound at 10× the desired screening concentration that are ultimately diluted to 1× by the addition of rabbit reticulocyte luciferase synthesis mixture. Serial dilutions of compounds were added ([…]) to wells in a black round bottom 96-well plate. Water (2.5 μL) was used as a “no inhibitor” control in 4 wells/plate. No RNA control reaction mixture ([…]; see below) was used as a control in 4 wells/plate for background luminescence. Rabbit reticulocyte luciferase synthesis mixture (22.5 μL; see below) was added to wells with compounds or water mixture and incubated at 30° C. for 90 minutes. Luciferase assay reagent (25 μL) was added with luminescence measured using a BioTek Synergy HTX plate reader. % Inhibition was determined relative to no inhibitor controls.
Rabbit reticulocyte luciferase synthesis mixture:
• 1,000 μL rabbit reticulocyte lysate • 5.7 μL Luciferase Control RNA (1 μg/μL) • 26 μL complete amino acid mixture • 395 μL water No RNA Control • 70 μL rabbit reticulocyte lysate • 2 μL complete amino acid mixture • 28 μL water Minimum Inhibitory Concentration (MIC)

[3] = class by IC50 or % inhibition @ 1 μM
[4] = growth medium with sodium bicarbonate
[5] = growth medium supplemented with sodium bicarbonate

Compound	IC50 [1, 3] [µM]	IC50 [2, 3] [µM]	further results
CC(C)(N)C(=O)N1CCN(C(=O)Nc2ccn(-c3ccc(CN4CCC[C@H](N)C4)cc3)c(=O)n2)CC1 [Compound 237]	0.5 to 1	> 1	MIC (E. coli (Ec); [4]): < 8 µg/mL
CC(C)(N)C(=O)N1CCN(C(=O)Nc2ccn(-c3ccc(CN4CCC(O)(CN)CC4)cc3)c(=O)n2)CC1 [Compound 215]	< 0.5	–	MIC (E. coli (Ec); [4]): < 8 µg/mL
CC(C)(N)C(=O)N1CCN(C(=O)Nc2ccn(-c3ccc(CN4CC(N)C4)cc3)c(=O)n2)CC1 [Compound 244]	> 1	> 1	MIC (E. coli (Ec); [4]): < 8 µg/mL
CC(C)(N)C(=O)N1CCN(C(=O)Nc2ccn(-c3ccc(C(C(=O)O)N4CCC(N)CC4)cc3)c(=O)n2)CC1 (stereo not drawn) [Compound 93]	> 1	–	MIC (E. coli (Ec); [5]): > 32 µg/mL
CO[C@@H]1CN(Cc2ccc(-n3ccc(NC(=O)N4CCN(C(=O)C(C)(C)N)CC4)nc3=O)cc2)CC[C@H]1N [Compound 216]	> 1	–	MIC (E. coli (Ec); [4]): 8 to 32 µg/mL
CC1(N)CCN(Cc2ccc(-n3ccc(NC(=O)N4CCN(C(=O)[C@@](C)(N)CO)CC4)nc3=O)cc2Cl)CC1 [Compound 360]	–	–	IC50 ([1]; % inhibition @ 1 μM): < 0.5 µM; IC50 ([2]; % inhibition @ 1 μM): > 1 µM
CC(C)(N)C(=O)N1CCN(C(=O)Nc2ccn(-c3ccc(CCN4CCC(CN)CC4)cc3)c(=O)n2)CC1 [Compound 1]	0.5 to 1	> 1	–
CC(C)(N)C(=O)N1CCN(C(=O)Nc2ccn(-c3cccc(CN4CCC(NC(=N)N)CC4)c3)c(=O)n2)CC1 [Compound 102]	> 1	> 1	–
CC(C)[C@H]1CN(C(=O)C(C)(C)N)CCN1C(=O)Nc1ccn(-c2ccc(CN3CCC(N)CC3)cc2)c(=O)n1 [Compound 77]	> 1	> 1	–
CCOC(=O)C(c1ccc(-n2ccc(NC(=O)N3CCN(C(=O)C(C)(C)N)CC3)nc2=O)cc1)N1CCC(N)CC1 (stereo not drawn) [Compound 92]	> 1	–	MIC (E. coli (Ec); [5]): > 32 µg/mL
CN(C)C1CCN(Cc2ccc(-n3ccc(NC(=O)N4CCN(C(=O)C(C)(C)N)CC4)nc3=O)cc2)CC1 [Compound 214]	< 0.5	–	MIC (E. coli (Ec); [4]): < 8 µg/mL
NC1CCN(Cc2ccc(-n3ccc(NC(=O)N4CCC[C@@H](N)C4)nc3=O)cc2)CC1 [Compound 47]	> 1	> 1	–
CC(C)(N)C(=O)N1CCN(C(=O)Nc2ccn(-c3ccc(CN4CC[C@@H](N)[C@H](F)C4)cc3)c(=O)n2)CC1 [Compound 208]	> 1	–	MIC (E. coli (Ec); [4]): 8 to 32 µg/mL
CC(C)(N)CC(=O)N1CCN(C(=O)Nc2ccn(-c3ccc(CN4CCC(N)CC4)c(C(F)(F)F)c3)c(=O)n2)CC1 [Compound 106]	> 1	> 1	–
Cc1cc(-n2ccc(NC(=O)N3CCN(C(=O)C(C)(N)CO)CC3)nc2=O)ccc1CN1CCC(N)CC1 (stereo not drawn) [Compound 101]	0.5 to 1	> 1	–
C[C@](N)(CO)C(=O)N1CCN(C(=O)Nc2ccn(-c3ccc(CCN4CC[C@H](N)C4)cc3)c(=O)n2)CC1 [Compound 13]	> 1	> 1	–

Compound	IC50 [1, 3] [µM]	IC50 [2, 3] [µM]	further results
CC(C)(N)C(=O)N1CCN(C(=O)Nc2ccn(-c3ccc(CC[N+]4(C)CCC(N)CC4)cc3)c(=O)n2)CC1 (stereo not drawn) [Compound 196]	< 0.5	> 1	–
CC(C)[C@H](N)C(=O)NC(C)(C)C(=O)N1CCN(C(=O)Nc2ccn(-c3ccc(CN4CCC(N)CC4)cc3)c(=O)n2)CC1 [Compound 364, hydrochloride salt]	–	–	IC50 ([1]; % inhibition @ 1 μM): < 0.5 µM; IC50 ([2]; % inhibition @ 1 μM): > 1 µM
CC(C)(N)C(=O)N1CCN(C(=O)Nc2ccn(-c3ccc(CN4CCOC(CN)C4)cc3)c(=O)n2)CC1 (stereo not drawn) [Compound 135]	> 1	> 1	–
CC[C@H]1CN(C(=O)C(C)(C)N)CCN1C(=O)Nc1ccn(-c2ccc(CN3CCC(N)CC3)cc2)c(=O)n1 [Compound 83]	> 1	> 1	–
NC1CCN(Cc2ccc(-n3ccc(NC(=O)N4CCC[C@H](N)C4)nc3=O)cc2)CC1 [Compound 48]	> 1	> 1	–
CC(C)(N)C(=O)N1CCN(C(=O)Nc2ccn(-c3ccc(CN4CCC(F)(F)CC4)cc3)c(=O)n2)CC1 [Compound 383]	–	–	IC50 ([1]; % inhibition @ 1 μM): > 1 µM; IC50 ([2]; % inhibition @ 1 μM): > 1 µM
CCC1CN(C(=O)C(C)(C)N)CCN1C(=O)Nc1ccn(-c2ccc(CN3CCC(N)CC3)cc2)c(=O)n1 (stereo not drawn) [Compound 55]	0.5 to 1	> 1	–
NC1CCN(Cc2ccc(-n3ccc(NC(=O)N4C[C@H]5CNC[C@H]5C4)nc3=O)cc2)CC1 [Compound 50]	> 1	> 1	–
CCC1CN(C(=O)Nc2ccn(-c3ccc(CN4CCC(N)CC4)cc3)c(=O)n2)CCN1C(=O)C(C)(C)N (stereo not drawn) [Compound 78]	> 1	> 1	–
C[C@@H]1CN(C(=O)C(C)(C)N)[C@H](C)CN1C(=O)Nc1ccn(-c2ccc(CN3CCC(N)CC3)cc2)c(=O)n1 [Compound 88]	> 1	> 1	–
CC(C)(N)C(=O)N1CC2CCC1CN2C(=O)Nc1ccn(-c2ccc(CN3CCC(N)CC3)cc2)c(=O)n1 (stereo not drawn) [Compound 87]	> 1	> 1	–
CC(C)(N)C(=O)N1CCCC2C1CCCN2C(=O)Nc1ccn(-c2ccc(CN3CCC(N)CC3)cc2)c(=O)n1 (stereo not drawn) [Compound 86]	> 1	> 1	–
NCC1CCCN(C(=O)Nc2ccn(-c3ccc(CN4CCC(N)CC4)cc3)c(=O)n2)C1 (stereo not drawn) [Compound 46]	> 1	> 1	–
CN(C)C1CCCN(CCc2ccc(-n3ccc(NC(=O)N4CCN(C(=O)C(C)(C)N)CC4)nc3=O)cc2)CC1 (stereo not drawn) [Compound 36]	> 1	> 1	–
CC(C)(N)C(=O)N1CCN(C(=O)Nc2ccn(-c3ccc(C4(CN5CCCC(N)CC5)CC4)cc3)c(=O)n2)CC1 (stereo not drawn) [Compound 40]	> 1	> 1	–
NC1CCN(Cc2ccc(-n3ccc(NC(=O)N4CCCNCC4)nc3=O)cc2)CC1 [Compound 54]	> 1	> 1	–
